Results on 18 compounds are retold here after patent US10233180B2, “Substituted nitrogen-containing heterocyclic derivatives, pharmaceutical compositions comprising the same and applications of antitumor thereof” (ZHEJIANG UNIVERSITY, priority 2014, dated 2019).

Where two headings read alike, the source gives them in different places.

In assay [1] the test system is human colon cancer cell strain HCT-116. The assay can be described thus: MTT assay, inhibition of tumor cell growth in vitro, 72 h. The format is cell-based. The note with it: HCT-116, MTT, read-out: Antitumor proliferative activities of tumor cell (IC50, μM) HCT-116 (converted). Here is the method:
(§1) First, inhibitory activity on tumor proliferation in vitro is determined and the structure activity relationship is preliminarily studied, in which different solid tumor cell strains are selected for determining the antitumor activities in vitro of the synthesized compounds.
(§2) Cell strains: Human ovarian cancer cell strain (OVCAR8), colon adenocarcinoma cell strain (HCT-116)
HCT-116: RPMI 1640+Fetal Bovine Serum
(§3) Preparing method of medicines: Dissolving the medicine in DMSO to make a 50 mM stock solution, and diluting it according to a certain ratio to obtain 5 different concentrations.
(§4) Two selected tumor cells OVCAR8 and HCT-116 are incubated at 37° C. in a 5% CO2 incubator, which are subcultured when cells grow up to a density of 70˜90% (adherent cells are subcultured after digesting by Duck's EDTA) for later experiments.
(§5) Compounds are dissolved and diluted by dimethyl sulfoxide (DMSO), and tumor cells OVCAR8 and HCT-116 are seeded in a 96-well plate at a density of 4000 cells/200 μl/well, 1 μl of the compounds are added to each well with the final concentration of 50 μM, 10 μM, 2 μM, 0.4 μM and 0.08 μM, which is incubated for 72 h at 37° C. in a 5% CO2 incubator with DMSO (1%) as blank control.
(§6) The calculating formula of cell inhibitory rate is: cell inhibitory rate %=(the OD value of the control group−the OD value of the medication group)/the OD value of the control group×100%, the half maximal inhibitory concentration (IC50) is obtained by Bliss method.
Background: Formazan colour is commonly taken as a measure of viable cells.

Assay [2] has as its target T1, Akt1 (Homo sapiens, UniProt P31749).
T1 construct: purchased 32-021
The assay can be described thus: AKT1/PKBα KinEASE FP Fluorescein Green Assay (fluorescence polarization kinase kit). The note with it: 1 h reaction, read-out: Inhibitory activities against Akt1 (IC50). The assay is classed as biochemical. As to the method:
Second, method for determining the inhibitory activities of substituted nitrogen-containing heterocyclic derivatives in the present invention against Akt1 enzyme:
The inhibitory activities of compounds against AKT1/PKBα are determined by using AKT1/PKBα KinEASE™ FP Fluorescein Green Assay (Green fluorescence detection system of Kinase).
Principle adopted by the fluorescence polarization detection of protein kinase B is a competitive reaction: the phosphorylated tracers labeled with fluorescence will compete with unlabeled phosphorylated products produced by reacting with protein kinase B to combine anti-serine antibodies. […] However, in the reaction mixture containing phosphorylated products, fewer tracers will combine with antibodies (fluorescent tracers are replaced from the antibodies), and signals sent our occur depolarizing. Therefore, the change of polarization is directly related to the activity of protein kinase B in the reaction.
Each of 0.25 μl of compounds with a concentration of 50 μM and the positive control are added to a 384-well plate at room temperature, and each sample is provided with three parallel wells, and then 10 μl of STK Substrate 3 Working Solution, 5 μl of AKT1/PKBα Working Solution, 10 μl of ATP Working Solution are added to each sample respectively, the mixtures are slightly vibrated and shaked for a few minutes. Reaction is carried out just after the adding 10 μl of ATP Working Solution, from this time, reacting for 1 h. After 1 h, 5 μl of STK Stop Mix and 5 μl of STK Antibody Mix are added to each sample respectively to stop the reaction. The samples are maintained for 4 h at room temperature after adding is completed, the polarization values of samples are determined by fluorescence polarization of Microplate Reader (Detection of the signals is valid within 24 h), the inhibitory rate of compounds against the enzyme is calculated by polarization value, and thereby IC50 is calculated.
Experiment is set up four control groups at the same time, which are Buffer Control Wells, Tracer Control Wells, No Enzyme Wells and blank control of dimethyl sulfoxide, respectively. Thus obtained data are used to calculate the inhibitory rate (the preparation methods of above various solution required for determining the activities of compounds against enzyme refer to the specification of the kit of AKT1/PKBα KinEASE™ FP Fluorescein Green Assay Catalog #32-021).
Background: In fluorescence polarisation assays a small probe gives low polarisation when free and higher when bound to something large.

The subject of assay [3] is Human ovarian cancer cell strain OVCAR-8. Briefly: MTT assay, inhibition of tumor cell growth in vitro, 72 h. The format is cell-based. The note with it: OVCAR-8, MTT, read-out: Antitumor proliferative activities of tumor cell (IC50, μM) OVCAR-8. As to the method: as §1, §2
Medium: OVCAR8: RPMI 1640+Fetal Bovine Serum
as §3, §4, §5, §6

T1 sequence (P31749 whole entry): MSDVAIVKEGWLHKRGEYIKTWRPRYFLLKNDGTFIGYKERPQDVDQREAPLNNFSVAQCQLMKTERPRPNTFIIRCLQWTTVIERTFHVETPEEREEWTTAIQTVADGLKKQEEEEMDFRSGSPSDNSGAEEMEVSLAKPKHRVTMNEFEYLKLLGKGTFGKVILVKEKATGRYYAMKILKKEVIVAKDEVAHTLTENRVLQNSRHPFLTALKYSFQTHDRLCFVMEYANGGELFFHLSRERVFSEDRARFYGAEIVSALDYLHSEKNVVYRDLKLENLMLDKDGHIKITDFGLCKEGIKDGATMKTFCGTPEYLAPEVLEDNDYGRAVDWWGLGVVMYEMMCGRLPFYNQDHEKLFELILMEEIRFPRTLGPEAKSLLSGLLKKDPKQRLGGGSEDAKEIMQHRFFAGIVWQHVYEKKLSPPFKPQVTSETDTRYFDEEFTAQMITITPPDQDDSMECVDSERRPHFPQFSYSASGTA

For `Cn1ncc(Cl)c1-c1cc(C(=O)N[C@@H]2CNC(CC(=O)NCCO)C[C@H]2c2ccc(Cl)c(Cl)c2)oc1Cl` (stereo partly drawn) [Compound 125, 5-chloro-4-(4-chloro-1-methyl-1H-pyrazol-5-yl)-N-((3S,4S)-4-(3,4-dichlorophenyl)-6-(2-((2-hydroxyethyl)amido)-2-oxoethyl)piperidin-3-yl)furan-2-formamide], the values for the IC50 in assay [1] (Homo sapiens), in assay [2] and in assay [3] (Homo sapiens) were 1.25 µM, 0.1 nM and 0.12 µM, respectively.

As to `Cn1ncc(Cl)c1-c1cc(C(=O)N[C@@H]2CNC(CC(O)CO)C[C@H]2c2ccc(F)c(F)c2)oc1Cl` (stereo partly drawn) [Compound 128, 5-chloro-4-(4-chloro-1-methyl-1H-pyrazol-5-yl)-N-((3S,4S)-4-(3,4-difluorophenyl)-6-(2,3-dihydroxypropyl)piperidin-3-yl)furan-2-formamide], the IC50 in assay [1] (Homo sapiens) is 0.95 µM; in assay [2] it was 0.5 nM; in assay [3] (Homo sapiens), 0.92 µM.

On to `Cn1ncc(Cl)c1-c1ccc(C(=O)N[C@@H]2CNCC[C@H]2c2ccc(Cl)cc2)c(C(F)(F)F)c1` [Compound 80, 4-(4-chloro-1-methyl-1H-pyrazol-5-yl)-N-((3S,4S)-4-(4-chlorophenyl)piperidin-3-yl)-2-(trifluoromethyl)benzamide], for which the IC50 is 2.51 µM in assay [1] (Homo sapiens), 1 nM in assay [2] and 0.94 µM in assay [3] (Homo sapiens).

`Cn1ncc(Cl)c1-c1cc(C(=O)N[C@@H]2CNC(CC(=O)O)C[C@H]2c2ccc(Cl)c(Cl)c2)oc1Cl` (stereo partly drawn) [Compound 116, 2-((4S,5S)-5-(5-chloro-4-(4-chloro-1-methyl-1H-pyrazol-5-yl)furan-2-formamide)-4-(3,4-dichlorophenyl)piperidin-2-yl)acetic acid]: the IC50 in assay [1] (Homo sapiens) was 5.01 µM; in assay [2], 1 nM; in assay [3] (Homo sapiens), 3.68 µM.

As for `Cn1ncc(Cl)c1-c1cc(C(=O)N[C@@H]2CNC(CCO)C[C@H]2c2ccc(F)c(F)c2)oc1Cl` (stereo partly drawn) [Compound 129, 5-chloro-4-(4-chloro-1-methyl-1H-pyrazol-5-yl)-N-((3S,4S)-4-(3,4-difluorophenyl)-6-(2-hydroxyethyl)piperidin-3-yl)furan-2-formamide], the IC50 was 0.78 µM in assay [1] (Homo sapiens), 0.4 nM in assay [2] and 0.51 µM in assay [3] (Homo sapiens).

As to `Cc1nc(C(=O)N[C@H]2CNCC[C@@H]2C2CCCNC2)ccc1-c1c(Br)cnn1C` (mixture of isomers) [Compound 59, 6-methyl-5-(4-bromo-1-methyl-1H-pyrazol-5-yl)-N-(3,4-trans-4-(piperidin-3-yl)piperidin-3-yl)pyridinyl-2-formamide], the results for the IC50 in assay [1] (Homo sapiens), in assay [2] and in assay [3] (Homo sapiens) were 8.33 µM, 142 nM and 7.88 µM, respectively.

With `Cc1cccc([C@H]2CCNC[C@@H]2NC(=O)c2cc(Cl)c(-c3ncnn3C)o2)c1` (racemic) [Compound 7, 4-chloro-5-(1-methyl-1H-1,2,4-triazol-5-yl)-N-(3,4-trans-4-(3-methylphenyl)piperidin-3-yl)furan-2-formamide], the results for the IC50 in assay [1] (Homo sapiens), in assay [2] and in assay [3] (Homo sapiens) were 8.3 µM, 62 nM and 3.88 µM, respectively.

As for `CNS(=O)(=O)CC1C[C@@H](c2ccc(F)c(F)c2)[C@H](NC(=O)c2ccc(-c3c(Cl)cnn3C)c(F)c2)CN1` (some centres unmarked) [Compound 101], the figures for the IC50 in assay [1] (Homo sapiens), in assay [2] and in assay [3] (Homo sapiens) were 2.11 µM, 7 nM and 0.43 µM, respectively.

In the case of `CNC(=O)CC1C[C@@H](c2ccc(F)c(F)c2)[C@H](NC(=O)c2ccc(-c3c(Cl)cnn3C)c(Cl)c2)CN1` (stereo partly drawn) [Compound 99, 3-chloro-4-(4-chloro-1-methyl-1H-pyrazol-5-yl)-N-((3S,4S)-4-(3,4-difluorophenyl)-6-(2-(methylamido)-2-oxoethyl)piperidin-3-yl)benzamide], the IC50 was 1.21 µM in assay [1] (Homo sapiens), 7 nM in assay [2] and 3.38 µM in assay [3] (Homo sapiens).

In the case of `CC(C)c1cnn(C)c1-c1nc(C(=O)N[C@H]2CNCC[C@@H]2C2CCC(F)C2)ncc1Cl` (stereo partly drawn) [Compound 51, 5-chloro-4-(4-isopropyl-1-methyl-1H-pyrazol-5-yl)-N-(3,4-trans-4-(3-fluorocyclopentane)piperidin-3-yl)pyrimidine-2-formamide], the values for the IC50 in assay [1] (Homo sapiens), in assay [2] and in assay [3] (Homo sapiens) were 3.11 µM, 85 nM and 0.68 µM, respectively.

`Cn1ncc(Cl)c1-c1ccc(C(=O)N[C@@H]2CNCC[C@H]2c2cccc(F)c2)s1` [Compound 138, 5-(4-chloro-1-methyl-1H-pyrazol-5-yl)-N-((3S,4S)-4-(3-fluorophenyl)piperidin-3-yl)thiophene-2-formamide]: the IC50 in assay [1] (Homo sapiens) is 0.56 µM; in assay [2], 1 nM; in assay [3] (Homo sapiens) it was 3.01 µM.

On to `Cn1ncc(Cl)c1-c1cc(C(=O)N[C@H]2CNCC[C@@H]2c2ccc(Cl)cc2)oc1Cl` (racemic) [Compound 2, 5-chloro-4-(4-chloro-1-methyl-1H-pyrazol-5-yl)-N-(3,4-trans-4-(4-chlorphenyl)piperidin-3-yl)furan-2-formamide], for which the IC50 in assay [1] (Homo sapiens) is 1.41 µM; in assay [2] it was 99 nM; in assay [3] (Homo sapiens), 6.45 µM.

As to `NC1(C(=O)N[C@@H](CCO)c2ccc(Cl)cc2)CCN(c2nc[nH]c3nccc2-3)CC1` [AZD5363, reference compound], the IC50 in assay [1] is 5.2 µM; in assay [3], 7.27 µM.

Turning to `Cn1ncc(Cl)c1-c1ccc(C(=O)N[C@@H]2CNCC[C@H]2c2ccc(Cl)c(C(F)(F)F)c2)c(F)c1` [Compound 84, 4-(4-chloro-1-methyl-1H-pyrazol-5-yl)-N-((3S,4S)-4-(4-chloro-3-(trifluoromethyl)phenyl)piperidin-3-yl)-2-fluorobenzamide], the IC50 in assay [1] (Homo sapiens) was 2.1 µM; in assay [2], 9 nM; in assay [3] (Homo sapiens), 4.44 µM.

On to `CC1CCC([C@H]2CCNC[C@@H]2NC(=O)c2ncc(-c3c(Cl)cnn3C)c(Cl)n2)CC1` (stereo partly drawn) [Compound 55, 4-chloro-5-(4-chloro-1-methyl-1H-pyrazol-5-yl)-N-(3,4-trans-4-(4-methylcyclohexane)piperidin-3-yl)pyrimidine-2-formamide], for which the results for the IC50 in assay [1] (Homo sapiens), in assay [2] and in assay [3] (Homo sapiens) were 10.8 µM, 48 nM and 5.79 µM, respectively.

For `Cc1cnn(C)c1-c1cnc(C(=O)N[C@H]2CNC[C@@H]2c2ccc(F)c(F)c2)cc1F` (racemic) [Compound 70, 4-fluoro-5-(1,4-dimethyl-1H-pyrazol-5-yl)-N-(3,4-trans-4-(3,4-difluorophenyl)pyrrolidin-3-yl)pyridinyl-2-formamide], the IC50 was 10.3 µM in assay [1] (Homo sapiens), 87 nM in assay [2] and 2.69 µM in assay [3] (Homo sapiens).

For the compound `Cn1ncc(Br)c1-c1coc(C(=O)N[C@H]2CNCC[C@@H]2c2ccc(Cl)cc2)c1` (racemic) [Compound 26, 4-(4-bromo-1-methyl-1H-pyrazol-5-yl)-N-(3,4-trans-4-(4-chlorphenyl)piperidin-3-yl)furan-2-formamide], the IC50 in assay [1] (Homo sapiens) was 2.16 µM; in assay [2], 34 nM; in assay [3] (Homo sapiens), 4.89 µM.

Regarding `Cn1ncc(Cl)c1-c1ccc(C(=O)N[C@@H]2CNC(CCO)C[C@H]2c2ccc(F)c(F)c2)cc1` (some centres unmarked) [Compound 100], the IC50 in assay [1] (Homo sapiens) is 0.42 µM; in assay [2] it was 9 nM; in assay [3] (Homo sapiens), 1.12 µM.

In general, IC50 refers to the midpoint of a concentration-inhibition curve.
